# Test results as given in patent US20190071416A1, “COMPOUNDS FOR TREATMENT OF CANCER AND EPIGENETICS” (Agency For Science, Technology and Research, priority 2015, published 2019).
# Target: T1, SMYD3 (Homo sapiens, UniProt Q9H7B4)
# T1 sequence (Q9H7B4 1-428): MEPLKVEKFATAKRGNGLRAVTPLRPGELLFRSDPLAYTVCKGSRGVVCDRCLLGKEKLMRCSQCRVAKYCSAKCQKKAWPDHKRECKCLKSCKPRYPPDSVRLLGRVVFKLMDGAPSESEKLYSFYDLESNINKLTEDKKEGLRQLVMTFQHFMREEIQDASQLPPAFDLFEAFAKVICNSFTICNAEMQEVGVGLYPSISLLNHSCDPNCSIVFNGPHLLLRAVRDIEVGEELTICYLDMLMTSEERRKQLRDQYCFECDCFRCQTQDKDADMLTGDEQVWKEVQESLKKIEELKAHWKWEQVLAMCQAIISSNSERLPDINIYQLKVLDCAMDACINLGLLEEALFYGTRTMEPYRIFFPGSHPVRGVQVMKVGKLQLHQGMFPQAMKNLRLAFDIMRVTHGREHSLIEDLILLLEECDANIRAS
# Experiment: SMYD3 biochemical assay (MTase-Glo, MAP3K2 peptide substrate)
# Conditions: Table 3; MTase assay, MAP3K2 peptide substrate; read-out: IC50
# Summary of the method: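 Methylation of MAP3K2 peptide (10 µM final) with SAM (1.0 µM final) by SMYD3, 30 min at room temperature. SAH formed was enzymatically converted to ATP and detected as luminescence with MTase-Glo reagents; IC50 by non-linear regression.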
row,IC50 [nM],SMILES
1,410,"CCCOC(=O)N1CCN(C(=O)c2ccc3c(Cl)cc(-c4ccc(F)c(C(=O)NC)c4)nc3c2)CC1 [B152, Propyl 4-(4-chloro-2-(4-fluoro-3-(methylcarbamoyl)phenyl)quinoline-7-carbonyl)piperazine-1-carboxylate]"
2,800,"CCCOC(=O)N1CCN(C(=O)c2ccc3c(Cl)c4c(nc3c2)CCC(C#N)C4)CC1 (centres unmarked) [A046, Propyl 4-(9-chloro-7-cyano-5,6,7,8-tetrahydroacridine-3-carbonyl)piperazine-1-carboxylate]"
3,1700,"CCCOC(=O)N1CCN(C(=O)c2ccc3c(Cl)c4c(nc3c2)CCCC4)CC1C(N)=O (centres unmarked) [A056, Propyl 2-carbamoyl-4-(9-chloro-5,6,7,8-tetrahydroacridine-3-carbonyl)piperazine-1-carboxylate]"
4,230,"CCCOC(=O)N1CCN(C(=O)c2ccc3c(Cl)c4c(nc3c2)CC(CN)CC4)[C@H](C)C1 (stereo partly drawn) [A102, Propyl (3R)-4-(6-(aminomethyl)-9-chloro-5,6,7,8-tetrahydroacridine-3-carbonyl)-3-methylpiperazine-1-carboxylate]"
5,2300,"CCCOC(=O)N1CCN(C(=O)c2ccc3c(Cl)c4c(nc3c2)CCCC4)C(C(N)=O)C1 (centres unmarked) [A059, Propyl 3-carbamoyl-4-(9-chloro-5,6,7,8-tetrahydroacridine-3-carbonyl)piperazine-1-carboxylate]"
6,7900,"CCCCC(=O)N1CCN(C(=O)c2ccc3c(Cl)ccnc3c2)CC1 [B226, 1-(4-(4-chloroquinoline-7-carbonyl)piperazin-1-yl)pentan-1-one]"
7,280,"CCCOC(=O)N1CCN(C(=O)c2ccc3c(Cl)cc(-c4ccc(C(C)N5CCCC5)cc4)nc3c2)C[C@H]1C (stereo partly drawn) [B283, Propyl (2R)-4-(4-chloro-2-(4-(1-(pyrrolidin-1-yl)ethyl)phenyl)quinoline-7-carbonyl)-2-methylpiperazine-1-carboxylate]"
8,3500,"CCCOC(=O)N1CCN(C(=O)c2ccc3c(Cl)cc(-c4ccc(N5CCCC5)c(F)c4)nc3c2)CC1 [B238, Propyl 4-(4-chloro-2-(3-fluoro-4-(pyrrolidin-1-yl)phenyl)quinoline-7-carbonyl)piperazine-1-carboxylate]"
9,1300,"CCCOC(=O)N1CCN(C(=O)c2ccc3c(Cl)c4c(nc3c2)CCC(C)C4)CC1 (centres unmarked) [A008, Propyl 4-(9-chloro-7-methyl-5,6,7,8-tetrahydroacridine-3-carbonyl)piperazine-1-carboxylate]"
10,230,"C[C@@H]1CN(C(=O)c2ccc3c(Cl)cc(-c4cc(F)c(O)c(F)c4)nc3c2)CCN1C(=O)OCCCF [B235, 3-Fluoropropyl (R)-4-(4-chloro-2-(3,5-difluoro-4-hydroxyphenyl)quinoline-7-carbonyl)-2-methylpiperazine-1-carboxylate]"
11,4300,"CCCOC(=O)N1CCN(C(=O)c2ccc3c(Cl)c4c(nc3c2)CCCC4)C(CC(=O)NC)C1 (centres unmarked) [A072, propyl 4-(9-chloro-5,6,7,8-tetrahydroacridine-3-carbonyl)-3-(2-(methylamino)-2-oxoethyl)piperazine-1-carboxylate]"
12,3200,"CCCOC(=O)N1CCN(C(=O)c2ccc3c(Cl)ccnc3c2)CC1 [B051, Propyl 4-(4-chloroquinoline-7-carbonyl)piperazine-1-carboxylate]"
13,120,"CCCOC(=O)N1CCN(C(=O)c2ccc3c(Cl)c4c(nc3c2)CCC(CC(=O)OC)C4)[C@@H](C)C1 (stereo partly drawn) [A084, Propyl (3S)-4-(9-chloro-7-(2-methoxy-2-oxoethyl)-5,6,7,8-tetrahydroacridine-3-carbonyl)-3-methylpiperazine-1-carboxylate]"
14,110,"CCCOC(=O)N1CCN(C(=O)c2ccc3c(Cl)cc(-c4ccc(OC)c(CN)c4)nc3c2)CC1 [B097, Propyl 4-(2-(3-(aminomethyl)-4-methoxyphenyl)-4-chloroquinoline-7-carbonyl)piperazine-1-carboxylate]"
15,610,"CCCOC(=O)N1CCN(C(=O)c2ccc3c(Cl)cc(-c4ccc(S(=O)(=O)N(C)C)cc4)nc3c2)C[C@H]1C [B094, Propyl (R)-4-(4-chloro-2-(4-(N,N-dimethylsulfamoyl)phenyl)quinoline-7-carbonyl)-2-methylpiperazine-1-carboxylate]"
16,5200,"CCCOC(=O)N1CCN(C(=O)c2ccc3c(Cl)c4c(nc3c2)CCCC4)CC1C(=O)OC (centres unmarked) [A042, 2-Methyl 1-propyl 4-(9-chloro-5,6,7,8-tetrahydroacridine-3-carbonyl)piperazine-1,2-dicarboxylate]"
17,83,"Cn1cc(C(=O)N2CCN(C(=O)c3ccc4c(Cl)cc(-c5ccccc5)nc4c3)CC2)nn1 [D007, (4-Chloro-2-phenylquinolin-7-yl)(4-(1-methyl-1H-1,2,3-triazole-4-carbonyl)piperazin-1-yl)methanone]"
18,350,"CCCOC(=O)N1CCN(C(=O)c2ccc3c(Cl)cc(-c4ccc(OC)c(C)c4)nc3c2)CC1 [B099, Propyl 4-(4-chloro-2-(4-methoxy-3-methylphenyl)quinoline-7-carbonyl)piperazine-1-carboxylate]"
19,600,"C=CCC1CCc2c(nc3cc(C(=O)N4CCN(C(=O)OCCC)CC4)ccc3c2Cl)C1 (centres unmarked) [A047, Propyl 4-(6-allyl-9-chloro-5,6,7,8-tetrahydroacridine-3-carbonyl)piperazine-1-carboxylate]"
20,120,"CCCOC(=O)N1CCN(C(=O)c2ccc3c(Cl)cc(-c4ccc5c(c4)OCO5)nc3c2)CC1 [B163, Propyl 4-(2-(benzo[d][1,3]dioxol-5-yl)-4-chloroquinoline-7-carbonyl)piperazine-1-carboxylate]"
21,70,"CCCOC(=O)N1CCN(C(=O)c2ccc3c(Cl)c(C)c(-c4ccc(CN)cc4)nc3c2)C[C@H]1C [B122, Propyl (R)-4-(2-(4-(aminomethyl)phenyl)-4-chloro-3-methylquinoline-7-carbonyl)-2-methylpiperazine-1-carboxylate]"
22,130,"CCCOC(=O)N1CCN(C(=O)c2ccc3c(Cl)c4c(nc3c2)CC(c2ccc(C)cn2)CC4)CC1 (centres unmarked) [A130, Propyl 4-(9-chloro-6-(5-methylpyridin-2-yl)-5,6,7,8-tetrahydroacridine-3-carbonyl)piperazine-1-carboxylate]"
23,240,"CCCOC(=O)N1CCN(C(=O)c2ccc3c(Cl)cc(-c4ccc5ocnc5c4)nc3c2)[C@@H](C)C1 [B241, Propyl (S)-4-(2-(benzo[d]oxazol-5-yl)-4-chloroquinoline-7-carbonyl)-3-methylpiperazine-1-carboxylate]"
24,230,"CCCOC(=O)N1CCN(C(=O)c2ccc3c(Cl)cc(-c4ccc(OC)cc4)nc3c2)[C@@H](C)C1 [B047, Propyl (S)-4-(4-chloro-2-(4-methoxyphenyl)quinoline-7-carbonyl)-3-methylpiperazine-1-carboxylate]"
25,69,"CCCOC(=O)N1CCN(C(=O)c2ccc3c(Cl)c4c(nc3c2)CC(CCN(C)C)CC4)C[C@@H]1C (stereo partly drawn) [A136, Propyl (2S)-4-(9-chloro-6-(2-(dimethylamino)ethyl)-5,6,7,8-tetrahydroacridine-3-carbonyl)-2-methylpiperazine-1-carboxylate]"
26,850,"CCCOC(=O)N1CCN(C(=O)c2ccc3c(Cl)c(C)c(-c4ccc(F)cc4)nc3c2)CC1 [B022, Propyl 4-(4-chloro-2-(4-fluorophenyl)-3-methylquinoline-7-carbonyl)piperazine-1-carboxylate]"
